Data from patent US9725449B2, “Tricyclic compounds as anticancer agents” (BRISTOL-MYERS SQUIBB COMPANY, priority 2015, dated 2017).

Target: BRD4 (Homo sapiens, UniProt O60885)
Assay: Time resolved fluorescence resonance energy transfer (TR-FRET) binding assay, bromodomain BRD4
Settings: one of the FRET assays described; read-out: FRET BRD4 IC50

| SMILES | IC50 |
| --- | --- |
| Cc1noc(C)c1-c1cnc2c3c(NS(=O)(=O)C(C)C)ncc(S(C)(=O)=O)c3n([C@H](c3ccccc3)C3CCOCC3)c2c1 [Example 100, N-[5-(Dimethyl-1,2-oxazol-4-yl)-10-methanesulfonyl-8-[(S)-oxan-4-yl(phenyl)methyl]-3,8,12-triazatricyclo[7.4.0.0^2,^7]trideca-1(13),2(7),3,5,9,11-hexaen-13-yl]propane-2-sulfonamide] | < 10 nM |
| Cc1nnn(C)c1-c1cnc2c3cnc(C#N)nc3n([C@H](c3ccccc3)C3CCOCC3)c2c1 [Example 143, 5-(Dimethyl-1H-1,2,3-triazol-5-yl)-8-[(S)-oxan-4-yl(phenyl)methyl]-3,8,10,12-tetraazatricyclo[7.4.0.0^2,^7]trideca-1(9),2(7),3,5,10,12-hexaene-11-carbonitrile] | < 1500 nM |
| COc1nccc2c3ncc(-c4c(C)nnn4C)cc3n(C(c3cccc(F)c3F)C3CCOCC3)c12 (single isomer, unassigned) [Example 23, 8-[(2,3-Difluorophenyl)(oxan-4-yl)methyl]-5-(dimethyl-1H-1,2,3-triazol-5-yl)-10-methoxy-3,8,11-triazatricyclo[7.4.0.0^2,^7]trideca-1(13),2(7),3,5,9,11-hexaene] | < 1500 nM |
| [2H]C([2H])([2H])c1nnn(C)c1-c1cnc2c3c(OC(C)C)ncc(S(C)(=O)=O)c3n([C@H](c3ccccc3)C3CCOCC3)c2c1 [Example 58, 10-Methanesulfonyl-5-[4-(^2H3)methyl-1-methyl-1H-1,2,3-triazol-5-yl]-8-[(S)-oxan-4-yl(phenyl)methyl]-13-(propan-2-yloxy)-3,8,12-triazatricyclo[7.4.0.0^2,^7]trideca-1(13),2(7),3,5,9,11-hexaene] | < 1 nM |
| COc1ccc(CNc2ccc3c4ncc(-c5c(C)nnn5C)cc4n([C@H](c4ccccc4)C4CCOCC4)c3n2)c(OC)c1 [Example 187, N-[(2,4-Dimethoxyphenyl)methyl]-5-(dimethyl-1H-1,2,3-triazol-5-yl)-8-[(S)-oxan-4-yl(phenyl)methyl]-3,8,10-triazatricyclo[7.4.0.0^2,^7]trideca-1(9),2(7),3,5,10,12-hexaen-11-amine] | < 10 nM |
| Cc1nnn(C)c1-c1cnc2c3c(OC(C)C)ncc(S(C)(=O)=O)c3n([C@H](c3ccccc3)C3CCOCC3)c2c1 [Example 57, 5-(Dimethyl-1H-1,2,3-triazol-5-yl)-10-methanesulfonyl-8-[(S)-oxan-4-yl(phenyl)methyl]-13-(propan-2-yloxy)-3,8,12-triazatricyclo[7.4.0.0^2,^7]trideca-1(13),2(7),3,5,9,11-hexaene] | < 1 nM |
| Cc1nnn(C)c1-c1cnc2c3c(F)ncc(Cl)c3n([C@H](c3ccccc3)C3CCOCC3)c2c1 [Example 37, 10-Chloro-5-(dimethyl-1H-1,2,3-triazol-5-yl)-13-fluoro-8-[(S)-oxan-4-yl(phenyl)methyl]-3,8,12-triazatricyclo[7.4.0.0^2,^7]trideca-1(13),2(7),3,5,9,11-hexaene] | < 10 nM |
| C=C(OCC)c1ccc2c3ncc(-c4c(C)nnn4C)cc3n([C@H](c3ccccc3)C3CCOCC3)c2n1 [Example 170, 5-(Dimethyl-1H-1,2,3-triazol-5-yl)-1-(1-ethoxyethenyl)-8-[(S)-oxan-4-yl(phenyl)methyl]-3,8,10-triazatricyclo[7.4.0.0^2,^7]trideca-1(9),2(7),3,5,10,12-hexaene] | < 10 nM |
| Cc1nnn(C)c1-c1cnc2c3ccc(C4=CCN(C)CC4)nc3n([C@H](c3ccccc3F)C3CCOCC3)c2c1 [Example 230, 5-(Dimethyl-1H-1,2,3-triazol-5-yl)-8-[(S)-(2-fluorophenyl)(oxan-4-yl)methyl]-11-(1-methyl-1,2,3,6-tetrahydropyridin-4-yl)-3,8,10-triazatricyclo[7.4.0.0^2,^7]trideca-1(13),2(7),3,5,9,11-hexaene] | < 10 nM |
| Cc1nnn(C)c1-c1cnc2c3ccnc(F)c3n([C@H](c3ccccc3F)C3CCOCC3)c2c1 [Example 29, 5-(Dimethyl-1H-1,2,3-triazol-5-yl)-10-fluoro-8-[(S)-(2-fluorophenyl)(oxan-4-yl)methyl]-3,8,11-triazatricyclo[7.4.0.0^2,^7]trideca-1(13),2(7),3,5,9,11-hexaene] | < 1 nM |
| Cc1nnn(C)c1-c1cnc2c3ccc(N4CC(C)S(=O)(=O)C(C)C4)nc3n([C@H](c3ccccc3)C3CCOCC3)c2c1 (single isomer, unassigned) [Example 190] | < 1 nM |
| COc1ncc(S(=O)(=O)CC2(O)COC2)c2c1c1ncc(-c3c(C)nnn3C)cc1n2[C@H](c1ccccc1)C1CCOCC1 [Example 106, 3-({[5-(Dimethyl-1H-1,2,3-triazol-5-yl)-13-methoxy-8-[(S)-oxan-4-yl(phenyl)methyl]-3,8,12-triazatricyclo[7.4.0.0^2,^7]trideca-1(13),2(7),3,5,9,11-hexaen-10-yl]sulfonyl}methyl)oxetan-3-ol] | < 10 nM |
| Cc1nnn(C)c1-c1cnc2c3c(N(C)C)ncc(Cl)c3n([C@H](c3ccccc3)C3CCOCC3)c2c1 [Example 41, 10-Chloro-5-(dimethyl-1H-1,2,3-triazol-5-yl)-N,N-dimethyl-8-[(S)-oxan-4-yl(phenyl)methyl]-3,8,12-triazatricyclo[7.4.0.0^2,^7]trideca-1(13),2(7),3,5,9,11-hexaen-13-amine] | < 1 nM |
| Cc1nnn(C)c1-c1cnc2c3c(NCC4CC4)ncc(Cl)c3n([C@H](c3ccccc3)C3CCOCC3)c2c1 [Example 44, 10-Chloro-N-(cyclopropylmethyl)-5-(dimethyl-1H-1,2,3-triazol-5-yl)-8-[(S)-oxan-4-yl(phenyl)methyl]-3,8,12-triazatricyclo[7.4.0.0^2,^7]trideca-1(13),2(7),3,5,9,11-hexaen-13-amine] | < 10 nM |
| Cc1nnn(C)c1-c1cnc2c3ccc(Cl)nc3n([C@@H](c3ccccc3)C3CCOCC3)c2c1 [Example 15, 11-Chloro-5-(dimethyl-1H-1,2,3-triazol-5-yl)-8-[(R)-oxan-4-yl(phenyl)methyl]-3,8,10-triazatricyclo[7.4.0.0^2,^7]trideca-1(9),2(7),3,5,10,12-hexaene] | < 1500 nM |
| Cc1nnn(C)c1-c1cnc2c3c(Cl)nc(C(C)(C)O)cc3n([C@H](c3ccccc3)C3CCOCC3)c2c1 [Example 294, 2-{13-chloro-5-[4-(^2H3)methyl-1-methyl-1H-1,2,3-triazol-5-yl]-8-[(S)-oxan-4-yl(phenyl)methyl]-3,8,12-triazatricyclo[7.4.0.0^2,^7]trideca-1(13),2(7),3,5,9,11-hexaen-11-yl}propan-2-ol] | < 10 nM |
| CSc1ccc2c3ncc(-c4c(C)nnn4C)cc3n([C@H](c3ccccc3)C3CCOCC3)c2n1 [Example 194, 5-(Dimethyl-1H-1,2,3-triazol-5-yl)-11-(methylsulfanyl)-8-[(S)-oxan-4-yl(phenyl)methyl]-3,8,10-triazatricyclo[7.4.0.0^2,^7]trideca-1(9),2(7),3,5,10,12-hexaene] | < 10 nM |
| [2H]C([2H])([2H])c1nnn(C)c1-c1cnc2c3c(OCC)ncc(S(C)(=O)=O)c3n(C(c3ncccc3F)C3CCOCC3)c2c1 (stereo not shown) [Example 68, 13-Ethoxy-8-[(3-fluoropyridin-2-yl)(oxan-4-yl)methyl]-10-methanesulfonyl-5-[4-(^2H3)methyl-1-methyl-1H-1,2,3-triazol-5-yl]-3,8,12-triazatricyclo[7.4.0.0^2,^7]trideca-1(13),2(7),3,5,9,11-hexaene] | < 1 nM |
| [2H]C([2H])([2H])c1nnn(C)c1-c1cnc2c3c(OC(C)C)ncc(S(C)(=O)=O)c3n(C(c3ncccc3F)C3CCOCC3)c2c1 (stereo not shown) [Example 71, 8-[(3-Fluoropyridin-2-yl)(oxan-4-yl)methyl]-10-methanesulfonyl-5-[4-(^2H3)methyl-1-methyl-1H-1,2,3-triazol-5-yl]-13-(propan-2-yloxy)-3,8,12-triazatricyclo[7.4.0.0^2,^7]trideca-1(13),2(7),3,5,9,11-hexaene] | < 1500 nM |
| [2H]C([2H])([2H])c1nnn(C)c1-c1cnc2c3cc(Cl)cnc3n([C@H](c3ccccc3)C3CCOCC3)c2c1 [Example 347, 12-Chloro-5-[4-(^2H3)methyl-1-methyl-1H-1,2,3-triazol-5-yl]-8-[(S)-oxan-4-yl(phenyl)methyl]-3,8,10-triazatricyclo[7.4.0.0^2,^7]trideca-1(13),2(7),3,5,9,11-hexaene] | < 1500 nM |
| [2H]C([2H])([2H])c1nnn(C)c1-c1cnc2c3c(OC)ncc(C(C)(C)O)c3n([C@H](c3ccccc3)C3CCOCC3)c2c1 [Example 138, 2-{13-Methoxy-5-[4-(^2H3)methyl-1-methyl-1H-1,2,3-triazol-5-yl]-8-[(S)-oxan-4-yl(phenyl)methyl]-3,8,12-triazatricyclo[7.4.0.0^2,^7]trideca-1(13),2(7),3,5,9,11-hexaen-10-yl}propan-2-ol] | < 10 nM |
| COc1ncc(CO)c2c1c1ncc(-c3c(C)nnn3C)cc1n2[C@H](c1ccccc1)C1CCOCC1 [Example 136, [5-(Dimethyl-1H-1,2,3-triazol-5-yl)-13-methoxy-8-[(S)-oxan-4-yl(phenyl)methyl]-3,8,12-triazatricyclo[7.4.0.0^2,^7]trideca-1(9),2,4,6,10,12-hexaen-10-yl]methanol] | < 10 nM |
| [2H]C([2H])([2H])c1nnn(C)c1-c1cnc2c3c(OCC4CC4)ncc(S(C)(=O)=O)c3n([C@H](c3ccccc3F)C3CCOCC3)c2c1 [Example 76, 13-(Cyclopropylmethoxy)-8-[(S)-(2-fluorophenyl)(oxan-4-yl)methyl]-10-methanesulfonyl-5-[4-(^2H3)methyl-1-methyl-1H-1,2,3-triazol-5-yl]-3,8,12-triazatricyclo[7.4.0.0^2,^7]trideca-1(13),2(7),3,5,9,11-hexaene] | < 1 nM |
| CCCC(c1ncccc1F)n1c2cc(-c3c(C)nnn3C)ncc2c2ncc(C(C)(C)O)cc21 (single isomer, unassigned) [Example 370] | < 10 nM |
| C=C(C)c1ccc2c3ncc(-c4c(C)nnn4C)cc3n([C@H](c3ccccc3)C3CCOCC3)c2n1 [Example 161, 5-(Dimethyl-1H-1,2,3-triazol-5-yl)-8-[(S)-oxan-4-yl(phenyl)methyl]-11-(prop-1-en-2-yl)-3,8,10-triazatricyclo[7.4.0.0^2,^7]trideca-1(9),2(7),3,5,10,12-hexaene] | < 10 nM |
